The text below walks through data of patent US8088815B2, “Spiroindolinone pyrrolidines” (Hoffman-La Roche Inc., priority 2009, dated 2012).

The structures appear in SMILES notation.

For the experiment, the target named is interaction between p53 and MDM2 proteins (Homo sapiens, UniProt Q00987). The experiment can be described thus: HTRF assay of inhibition of the p53-MDM2 interaction (GST-MDM2 / biotinylated p53 peptide). In kind it is binding. The following applies: recombinant GST-tagged MDM2 and biotinylated p53 peptide, bsa:0.02%.
Chain of interaction between p53 and MDM2 proteins (Q00987 whole entry): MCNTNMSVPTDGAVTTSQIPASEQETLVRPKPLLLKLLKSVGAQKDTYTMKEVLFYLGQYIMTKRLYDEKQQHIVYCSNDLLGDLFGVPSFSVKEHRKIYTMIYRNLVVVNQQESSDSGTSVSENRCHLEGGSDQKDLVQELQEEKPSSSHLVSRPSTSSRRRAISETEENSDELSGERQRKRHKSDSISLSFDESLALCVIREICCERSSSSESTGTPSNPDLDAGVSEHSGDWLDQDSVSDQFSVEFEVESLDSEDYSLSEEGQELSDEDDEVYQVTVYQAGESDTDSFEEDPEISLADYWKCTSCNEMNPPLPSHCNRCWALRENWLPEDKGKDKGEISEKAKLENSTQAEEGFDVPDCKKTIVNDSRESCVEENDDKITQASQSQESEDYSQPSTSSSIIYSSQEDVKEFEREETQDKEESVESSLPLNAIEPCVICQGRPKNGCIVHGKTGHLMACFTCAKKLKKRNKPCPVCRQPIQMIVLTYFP
Regarding `CC(C)(C)C[C@@H]1N[C@@H](C(=O)Nc2ccc(CC(=O)O)cc2)[C@H](c2cccc(Cl)c2F)[C@]12C(=O)Nc1cc(Cl)ccc12` (racemic) [Example 220, rac-(4-{[(2′S,3′R,4′S,5′R)-6-chloro-4′-(3-chloro-2-fluoro-phenyl)-2′-(2,2-dimethyl-propyl)-2-oxo-1,2-dihydro-spiro[indole-3,3′-pyrrolidine]-5′-carbonyl]-amino}-phenyl)-acetic acid], the IC50 (commonly the concentration at which inhibition is half-maximal) turned out to be 15 nM. For `CC(C)(C)C[C@@H]1N[C@@H](C(=O)Nc2ccc(C#N)cc2)[C@H](c2ccc(F)c(Cl)c2)[C@]12C(=O)Nc1cc(Cl)ccc12` (racemic) [Example 83, rac-(2′S,3′R,4′R,5′R)-6-chloro-4′-(3-chloro-4-fluoro-phenyl)-2′-(2,2-dimethyl-propyl)-2-oxo-1,2-dihydro-spiro[indole-3,3′-pyrrolidine]-5′-carboxylic acid (4-cyano-phenyl)-amide] the value was 34 nM. For `CC(C)(C)C[C@@H]1N[C@@H](C(=O)Nc2ccc(I)cc2)[C@H](c2cccc(Cl)c2F)[C@]12C(=O)Nc1cc(Cl)ccc12` (racemic) [Example 56, rac-(2′S,3′R,4′S,5′R)-6-chloro-4′-(3-chloro-2-fluoro-phenyl)-2′-(2,2-dimethyl-propyl)-2-oxo-1,2-dihydro-spiro[indole-3,3′-pyrrolidine]-5′-carboxylic acid (4-iodo-phenyl)-amide] the value was 19 nM; for `CC(C)(C)C[C@@H]1N[C@@H](C(=O)Nc2ccc(C#N)cc2)[C@H](c2cccc(Cl)c2F)[C@]12C(=O)Nc1cc(Cl)ccc12` [Example 137, chiral (2′S,3′R,4′S,5′R)-6-chloro-4′-(3-chloro-2-fluoro-phenyl)-2′-(2,2-dimethyl-propyl)-2-oxo-1,2-dihydro-spiro[indole-3,3′-pyrrolidine]-5′-carboxylic acid (4-cyano-phenyl)-amide], 5 nM.

Turning to `COC(=O)c1ccc(NC(=O)[C@@H]2N[C@@H](CC(C)(C)C)[C@@]3(C(=O)Nc4cc(Cl)ccc43)[C@H]2c2ccc(F)c(Cl)c2)c(OC)c1` (racemic) [Example 126, rac-4-{[(2′S,3′R,4′R,5′R)-6-chloro-4′-(3-chloro-4-fluoro-phenyl)-2′-(2,2-dimethyl-propyl)-2-oxo-1,2-dihydro-spiro[indole-3,3′-pyrrolidine]-5′-carbonyl]amino}-3-methoxy-benzoic acid methyl ester], the IC50 stood at 29 nM. Turning to `CC(C)(C)C[C@@H]1N[C@@H](C(=O)Nc2ccc(C#N)nc2)[C@H](c2cccc(Cl)c2F)[C@]12C(=O)Nc1cc(Cl)ccc12` (racemic) [Example 182, rac-(2′S,3′R,4′S,5′R)-6-chloro-4′-(3-chloro-2-fluoro-phenyl)-2′-(2,2-dimethyl-propyl)-2-oxo-1,2-dihydro-spiro[indole-3,3′-pyrrolidine]-5′-carboxylic acid (6-cyano-pyridin-3-yl)-amide], the IC50 was 17 nM. Take `COC(=O)c1cccc(NC(=O)[C@@H]2N[C@@H](CC(C)(C)C)[C@@]3(C(=O)Nc4cc(Cl)ccc43)[C@H]2c2cccc(Cl)c2F)c1` (racemic) [Example 31, rac-3-{[(2′S,3′R,4′S,5′R)-6-chloro-4′-(3-chloro-2-fluoro-phenyl)-2′-(2,2-dimethyl-propyl)-2-oxo-1,2-dihydro-spiro[indole-3,3′-pyrrolidine]-5′-carbonyl]amino}-benzoic acid methyl ester]: the concentration for half-maximal inhibition (IC50) was found to be 17 nM.

`COC(=O)c1ccc(NC(=O)[C@@H]2N[C@@H](CC(C)(C)C)[C@@]3(C(=O)Nc4cc(Cl)ccc43)[C@H]2c2cccc(Cl)c2F)cc1Cl` (racemic) [Example 25, rac-2-chloro-4-{[(2′S,3′R,4′S,5′R)-6-chloro-4′-(3-chloro-2-fluoro-phenyl)-2′-(2,2-dimethyl-propyl)-2-oxo-1,2-dihydro-spiro[indole-3,3′-pyrrolidine]-5′-carbonyl]-amino}-benzoic acid methyl ester]: the IC50 amounted to 20 nM. In the case of `COc1cc(OCCSC)ccc1NC(=O)[C@@H]1N[C@@H](CC(C)(C)C)[C@@]2(C(=O)Nc3cc(Cl)ccc32)[C@H]1c1cccc(Cl)c1F` [Example 169, chiral (2′S,3′R,4′S,5′R)-6-chloro-4′-(3-chloro-2-fluoro-phenyl)-2′-(2,2-dimethyl-propyl)-2-oxo-1,2-dihydro-spiro[indole-3,3′-pyrrolidine]-5′-carboxylic acid [2-methoxy-4-(2-methylsulfanyl-ethoxy)-phenyl]-amide], the IC50 turned out to be 11 nM. On to `CC(C)(C)C[C@@H]1N[C@@H](C(=O)Nc2ccc(C(N)=O)cc2)[C@H](c2cccc(Br)c2F)[C@]12C(=O)Nc1cc(Cl)ccc12` (racemic) [Example 99, rac-(2′S,3′R,4′S,5′R)-4′-(3-bromo-2-fluoro-phenyl)-6-chloro-2′-(2,2-dimethyl-propyl)-2-oxo-1,2-dihydro-spiro[indole-3,3′-pyrrolidine]-5′-carboxylic acid (4-carbamoyl-phenyl)-amide], for which the half-maximal inhibitory concentration (IC50) worked out at 18 nM. For the molecule `CC(C)(C)C[C@@H]1N[C@@H](C(=O)Nc2cnc(C(N)=O)nc2)[C@H](c2cccc(Cl)c2F)[C@]12C(=O)Nc1cc(Cl)ccc12` (racemic) [Example 185, rac-(2′S,3′R,4′S,5′R)-6-chloro-4′-(3-chloro-2-fluoro-phenyl)-2′-(2,2-dimethyl-propyl)-2-oxo-1,2-dihydro-spiro[indole-3,3′-pyrrolidine]-5′-carboxylic acid (2-carbamoyl-pyrimidin-5-yl)-amide], the IC50 came out at 16 nM. For `CC(C)(C)C[C@@H]1N[C@@H](C(=O)Nc2ccc(C(N)=O)cc2)[C@H](c2cccc(Cl)c2F)[C@]12C(=O)Nc1cc(Cl)cc(F)c12` (racemic) [Example 73, rac-(2′S,3′R,4′S,5′R)-6-chloro-4′-(3-chloro-2-fluoro-phenyl)-2′-(2,2-dimethyl-propyl)-4-fluoro-2-oxo-1,2-dihydro-spiro[indole-3,3′-pyrrolidine]-5′-carboxylic acid (4-carbamoyl-phenyl)-amide] the value was 11 nM.

For the molecule `CC(C)(C)C[C@@H]1N[C@@H](C(=O)Nc2ccc(C(N)=O)cc2F)[C@H](c2cccc(Cl)c2F)[C@]12C(=O)Nc1cc(Cl)cc(F)c12` (racemic) [Example 79, rac-(2′S,3′R,4′S,5′R)-6-chloro-4′-(3-chloro-2-fluoro-phenyl)-2′-(2,2-dimethyl-propyl)-4-fluoro-2-oxo-1,2-dihydro-spiro[indole-3,3′-pyrrolidine]-5′-carboxylic acid (4-carbamoyl-2-fluoro-phenyl)-amide], the IC50 is 13 nM.

Take `CC(C)(C)C[C@@H]1N[C@@H](C(=O)Nc2ccn(CC(C)(C)O)n2)[C@H](c2cccc(Cl)c2F)[C@]12C(=O)Nc1cc(Cl)ccc12` (racemic) [Example 55, rac-(2′S,3′R,4′S,5′R)-6-chloro-4′-(3-chloro-2-fluoro-phenyl)-2′-(2,2-dimethyl-propyl)-2-oxo-1,2-dihydro-spiro[indole-3,3′-pyrrolidine]-5′-carboxylic acid [1-(2-hydroxy-2-methyl-propyl)-1H-pyrazol-3-yl]-amide trifluoroacetic acid]: the half-inhibitory concentration (IC50) came out at 13 nM.
